In patent publication US10330685B2, “Markers for sepsis treatment” (priority 2014, dated 2019):

Experiments:
sepsis patients = assay: Phase I clinical trial of L-carnitine treatment for sepsis: survival; assay type: in vivo, human
Description: (§1) These and other features, aspects, and advantages of the present technology will become better understood with regard to the following drawings, which represent the analysis of patients enrolled in a phase I study of L-carnitine in septic shock (see, e.g., Puskarich et al. J Parenter Enteral Nutr 38(6): 736-743, incorporated herein by reference in its entirety). From this study, serum samples collected from carnitine-treated (n=16) and placebo-treated (n=14) patients were assayed by ^1H-nuclear magnetic resonance (NMR) and the resulting spectra were used to identify and quantify metabolites; a total of 38 metabolites were identified in each sample:
(§2) Serum samples were collected from patients enrolled in a previously published double-blind randomized phase I clinical trial of L-carnitine treatment for sepsis (see, e.g., Puskarich et al., J Parenter Enteral Nutr 38(6): 736-743, incorporated herein by reference in its entirety). From this study, serum samples collected from carnitine-treated (n=16) and placebo-treated (n=15) patients were assayed by ^1H-nuclear magnetic resonance (NMR) and the resulting spectra were used to identify and quantify metabolites; a total of 38 metabolites were identified in each sample.
Serum was assayed prior to (T0) and following (T24, T48) treatment with a single 12-g dose of LC or placebo. […]

[1] = Serum metabolites by 1H-NMR before and 24 h and 48 h after L-carnitine treatment; assay type: in vivo, human
Description: as §1
as §2, with “sample. […]” for “sample.”
The levels of these metabolites were also measured in samples acquired at 24 hours and 48 hours after treatment with L-carnitine. […]

septic shock = septic shock patients; cited from earlier work

## C[N+](C)(C)C[C@H](O)CC(=O)[O-] [L-carnitine]
Sepsis patients; "high" ketone sepsis patients treated with LC compared with "low" ketone patients
  mortality rate: higher mortality rate
Sepsis patients; patients with "low" amounts of ketone prior to L-carnitine treatment vs patients with "high" amounts
  survival: significantly better survival
[1]; in vivo
  carnitine levels at 24 hours: higher carnitine levels
[1]; serum, LC-treated patients, following a profound decline
  citrate levels: increased
Septic shock
  hemodynamic parameters (right atrial pressure, mean arterial pressure, arterial oxygenation): improvements
